PubChem BioAssay (NCI)
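Method: 48-hour compound exposure of cells in 96-well plates, five concentrations, linear interpolation of endpoints. The concentration for 50% growth inhibition is given as GI50. TGI denotes the concentration required for complete inhibition of growth.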

Experiments:
Test in all cases: NCI anticancer screen, dose series, 48 h
IGROV1 ovarian = test system: IGROV1 ovarian
HOP-92 NSCLC = test system: HOP-92 NSCLC
CCRF-CEM leukemia = test system: CCRF-CEM leukemia
EKVX NSCLC = test system: EKVX NSCLC
SK-MEL-2 melanoma = test system: SK-MEL-2 melanoma
K-562 leukemia = test system: K-562 leukemia
HS 578T breast = test system: HS 578T breast
TK-10 renal = test system: TK-10 renal
MCF7 breast = test system: MCF7 breast
SF-539 CNS = test system: SF-539 CNS
RXF 393 renal = test system: RXF 393 renal
OVCAR-8 ovarian = test system: OVCAR-8 ovarian
UACC-257 melanoma = test system: UACC-257 melanoma
NCI-H522 lung = test system: NCI-H522 lung
MALME-3M melanoma = test system: MALME-3M melanoma
CAKI-1 renal = test system: CAKI-1 renal
U251 CNS = test system: U251 CNS
OVCAR-4 ovarian = test system: OVCAR-4 ovarian
786-0 renal = test system: 786-0 renal
PC-3 prostate = test system: PC-3 prostate
ACHN renal = test system: ACHN renal
NCI-H23 lung = test system: NCI-H23 lung
T-47D breast = test system: T-47D breast
HT29 colon = test system: HT29 colon
NCI-H226 lung = test system: NCI-H226 lung
MOLT-4 leukemia = test system: MOLT-4 leukemia
SW-620 colon = test system: SW-620 colon
MDA-MB-468 breast = test system: MDA-MB-468 breast
HCT-116 colon = test system: HCT-116 colon
MDA-MB-231 breast = test system: MDA-MB-231 breast
SR leukemia = test system: SR leukemia
NCI-H460 lung = test system: NCI-H460 lung
COLO 205 colon = test system: COLO 205 colon
UO-31 renal = test system: UO-31 renal
RPMI-8226 leukemia = test system: RPMI-8226 leukemia
HCC-2998 colon = test system: HCC-2998 colon
MDA-MB-435 = test system: MDA-MB-435
SNB-19 CNS = test system: SNB-19 CNS
LOX IMVI melanoma = test system: LOX IMVI melanoma
OVCAR-3 ovarian = test system: OVCAR-3 ovarian
UACC-62 melanoma = test system: UACC-62 melanoma
SF-295 CNS = test system: SF-295 CNS
OVCAR-5 ovarian = test system: OVCAR-5 ovarian
M14 melanoma = test system: M14 melanoma
DU-145 prostate = test system: DU-145 prostate
SK-OV-3 ovarian = test system: SK-OV-3 ovarian
SNB-75 CNS = test system: SNB-75 CNS
HOP-62 NSCLC = test system: HOP-62 NSCLC
SF-268 CNS = test system: SF-268 CNS
SK-MEL-5 melanoma = test system: SK-MEL-5 melanoma
NCI/ADR-RES ovarian = test system: NCI/ADR-RES ovarian
KM12 colon = test system: KM12 colon
BT-549 breast = test system: BT-549 breast
SK-MEL-28 melanoma = test system: SK-MEL-28 melanoma
SN12C renal = test system: SN12C renal
HCT-15 colon = test system: HCT-15 colon
A498 renal = test system: A498 renal
A549 NSCLC = test system: A549 NSCLC
HL-60(TB) leukemia = test system: HL-60(TB) leukemia

Compound: O=C(NO)c1ccc(CNC(=O)[C@H]2Cc3c([nH]c4ccccc34)[C@H](c3ccc(Cl)cc3)N2)cc1
- GI50 (IGROV1 ovarian): 1200 nM
- TGI (IGROV1 ovarian): 4.27 µM
- GI50 (HOP-92 NSCLC): 930 nM
- TGI (HOP-92 NSCLC): 4.48 µM
- GI50 (CCRF-CEM leukemia): 617 nM
- TGI (CCRF-CEM leukemia): > 22 µM
- GI50 (EKVX NSCLC): 2650 nM
- TGI (EKVX NSCLC): 16.4 µM
- GI50 (SK-MEL-2 melanoma): 2770 nM
- TGI (SK-MEL-2 melanoma): 7.03 µM
- GI50 (K-562 leukemia): 720 nM
- TGI (K-562 leukemia): > 22 µM
- GI50 (HS 578T breast): 1010 nM
- TGI (HS 578T breast): > 22 µM
- GI50 (TK-10 renal): 1510 nM
- TGI (TK-10 renal): 14.6 µM
- GI50 (MCF7 breast): 874 nM
- TGI (MCF7 breast): 8.36 µM
- GI50 (SF-539 CNS): 1140 nM
- TGI (SF-539 CNS): 4.24 µM
- GI50 (RXF 393 renal): 455 nM
- TGI (RXF 393 renal): 2250 nM
- GI50 (OVCAR-8 ovarian): 942 nM
- TGI (OVCAR-8 ovarian): > 22 µM
- GI50 (UACC-257 melanoma): 1230 nM
- TGI (UACC-257 melanoma): > 22 µM
- GI50 (NCI-H522 lung): 584 nM
- TGI (NCI-H522 lung): 3.16 µM
- GI50 (MALME-3M melanoma): 410 nM
- TGI (MALME-3M melanoma): 2310 nM
- GI50 (CAKI-1 renal): 2330 nM
- TGI (CAKI-1 renal): 9.73 µM
- GI50 (U251 CNS): 1210 nM
- TGI (U251 CNS): 5.8 µM
- GI50 (OVCAR-4 ovarian): 3.73 µM
- TGI (OVCAR-4 ovarian): > 22 µM
- GI50 (786-0 renal): 3.71 µM
- TGI (786-0 renal): 14.2 µM
- GI50 (PC-3 prostate): 1760 nM
- TGI (PC-3 prostate): 9.17 µM
- GI50 (ACHN renal): 3.05 µM
- TGI (ACHN renal): 9.57 µM
- GI50 (NCI-H23 lung): 1330 nM
- TGI (NCI-H23 lung): 4.26 µM
- GI50 (T-47D breast): 600 nM
- TGI (T-47D breast): 5.44 µM
- GI50 (HT29 colon): 838 nM
- TGI (HT29 colon): > 22 µM
- GI50 (NCI-H226 lung): 2270 nM
- TGI (NCI-H226 lung): 11.6 µM
- GI50 (MOLT-4 leukemia): 563 nM
- TGI (MOLT-4 leukemia): > 22 µM
- GI50 (SW-620 colon): 687 nM
- TGI (SW-620 colon): 2370 nM
- GI50 (MDA-MB-468 breast): 380 nM
- TGI (MDA-MB-468 breast): 1140 nM
- GI50 (HCT-116 colon): 609 nM
- TGI (HCT-116 colon): 3.72 µM
- GI50 (MDA-MB-231 breast): 887 nM
- TGI (MDA-MB-231 breast): 4 µM
- GI50 (SR leukemia): 1150 nM
- TGI (SR leukemia): > 22 µM
- GI50 (NCI-H460 lung): 1020 nM
- TGI (NCI-H460 lung): > 22 µM
- GI50 (COLO 205 colon): 719 nM
- TGI (COLO 205 colon): 3.38 µM
- GI50 (UO-31 renal): 2640 nM
- TGI (UO-31 renal): 6.27 µM
- GI50 (RPMI-8226 leukemia): 564 nM
- TGI (RPMI-8226 leukemia): > 22 µM
- GI50 (HCC-2998 colon): 605 nM
- TGI (HCC-2998 colon): 3.08 µM
- GI50 (MDA-MB-435): 959 nM
- TGI (MDA-MB-435): 4.36 µM
- GI50 (SNB-19 CNS): 2260 nM
- TGI (SNB-19 CNS): 5.3 µM
- GI50 (LOX IMVI melanoma): 1090 nM
- TGI (LOX IMVI melanoma): 4.76 µM
- GI50 (OVCAR-3 ovarian): 1230 nM
- TGI (OVCAR-3 ovarian): 9.15 µM
- GI50 (UACC-62 melanoma): 538 nM
- TGI (UACC-62 melanoma): 2940 nM
- GI50 (SF-295 CNS): 1810 nM
- TGI (SF-295 CNS): 4.75 µM
- GI50 (OVCAR-5 ovarian): 456 nM
- TGI (OVCAR-5 ovarian): 3.01 µM
- GI50 (M14 melanoma): 2200 nM
- TGI (M14 melanoma): 8.42 µM
- GI50 (DU-145 prostate): 1080 nM
- TGI (DU-145 prostate): > 22 µM
- GI50 (SK-OV-3 ovarian): 2010 nM
- TGI (SK-OV-3 ovarian): 5.9 µM
- GI50 (SNB-75 CNS): 2260 nM
- TGI (SNB-75 CNS): 7.58 µM
- GI50 (HOP-62 NSCLC): 1270 nM
- TGI (HOP-62 NSCLC): 7.42 µM
- GI50 (SF-268 CNS): 2920 nM
- TGI (SF-268 CNS): 12.5 µM
- GI50 (SK-MEL-5 melanoma): 721 nM
- TGI (SK-MEL-5 melanoma): 2710 nM
- GI50 (NCI/ADR-RES ovarian): 3.35 µM
- TGI (NCI/ADR-RES ovarian): > 22 µM
- GI50 (KM12 colon): 2360 nM
- TGI (KM12 colon): 6.71 µM
- GI50 (BT-549 breast): 4.93 µM
- TGI (BT-549 breast): 11 µM
- GI50 (SK-MEL-28 melanoma): 878 nM
- TGI (SK-MEL-28 melanoma): 3.62 µM
- GI50 (SN12C renal): 2410 nM
- TGI (SN12C renal): 9.15 µM
- GI50 (HCT-15 colon): 4.26 µM
- TGI (HCT-15 colon): > 22 µM
- GI50 (A498 renal): 2060 nM
- TGI (A498 renal): 9.06 µM
- GI50 (A549 NSCLC): 3.97 µM
- TGI (A549 NSCLC): > 22 µM
- GI50 (HL-60(TB) leukemia): 706 nM
- TGI (HL-60(TB) leukemia): 3.13 µM
